Patent publication US20150258052A1, “METHODS OF USING FEXARAMINE AND AGENTS THAT INCREASE SYMPATHETIC NERVOUS SYSTEM ACTIVITY TO PROMOTE BROWNING OF WHITE ADIPOSE TISSUE” (Salk Institute for Biological Studies, priority 2014, published 2015)

Legend:
TGR5 null mice = test: Fexaramine in HFD-fed TGR5-null mice; type: in vivo; conditions: 100 mg/kg/day PO 5 weeks
Experimental: HFD-fed TGR5-null mice were treated with vehicle or fexaramine (100 mg/kg os daily for 5 weeks with HFD, n=10). (A) Ileal FXR target gene expressions (B) Serum BA levels (C) Fasting glucose levels (D) Glucose tolerance test (E) Core body temperature (F) Oxygen consumption rate (G) Carbon dioxide production (H) Gene expression in BAT (I) Body weight curve (J) Body composition by MRI (K) Insulin Tolerance Test (L) Hepatic gene expression (M) Hepatic TG levels (N) and Gene expression in soleus of TGR5 knockout mice with and without fexaramine treatment. Data represent the mean±SD. Statistical analysis was performed with the Student's t test. *p<0.05, **p<0.01.
To address this possibility, HFD-fed TGR5 null mice were chronically treated with Fex (100 mg/kg/day PO for 5 weeks). […] In particular, the anti-lipogenic effects of Fex in the liver appear to require TGR5 activation, as key hepatic lipogenic genes and liver triglyceride content were not affected by Fex treatment (FIGS. 11L, 11M).

[1] = LC/MS quantification of serum fexaramine after PO or IP administration; type: in vivo, mice
Experimental: FIG. 1D is a schematic diagram illustrating an experimental procedure used to evaluate fexaramine, where mice were treated with vehicle or fexaramine (100 mg/kg) via PO or IP injection, and LC/MS quantification of serum fexaramine was conducted five days later.
FIG. 1E is a bar chart illustrating serum fexaramine concentrations after administration as described in FIG. 1D. Data represent mean values±STD. Statistical analysis was performed with the Student's t test (*p<0.05, **p<0.01).
Upon exploration of the in vivo effects of fexaramine (Fex) administration, it was discovered that due to ineffectual absorption, oral (PO) and intraperitoneal (IP) drug delivery produced very different effects (FIGS. 1D and 1E).

[2] = system: FGF15 signaling and bile acid composition; test: FGF15 signaling, hepatic bile acid genes, serum bile acid composition and intestinal barrier in Fex-treated HFD mice; type: in vivo
Experimental: FIGS. 7A-7H show a comparative expression chart and bar charts illustrating that fexaramine increased endogenous FGF15 signaling and changes in BA composition. Mice were fed HFD for 14 weeks and then administered daily oral injections of vehicle or fexaramine (100 mg/kg) for 5 weeks with HFD. In the bar graphs, open bars represent vehicle treatment and solid bars represent fexaramine treatment, and data represent the mean±STD. Statistical analysis was performed with the Student's t test (*p<0.05, **p<0.01).
FIG. 8 is a bar graph showing hepatic Cyp7a1 levels determined by ELISA. Data represent the mean±SD. Statistical analysis was performed with the Student's t test. *p<0.05, **p<0.01.
Mice fed a HFD for 14 weeks were maintained on a HFD and treated with vehicle or fexaramine (100 mg/kg/day per os for 5 week). Serum bile acid composition was determined by mass spectrometry. N.D. not determined.
FXR activation has been reported to enhance mucosal defense gene expression and intestinal barrier function (Inagaki et al., Proc Natl Acad Sci USA 103:3920-3925, 2006; Gadaleta., et al. Gut 60:463-472, 2011).

SMILES: COC(=O)/C=C/c1cccc(N(Cc2ccc(-c3ccc(N(C)C)cc3)cc2)C(=O)C2CCCCC2)c1 [Fex, fexaramine]
- FXR target genes in ileum including FGF15 (TGR5 null mice): induced multiple FXR target genes
- core body temperature and metabolic rate (TGR5 null mice): somewhat blunted increases
- fasting glucose levels and glucose tolerance (TGR5 null mice): moderate improvements
- key hepatic lipogenic genes and liver triglyceride content (TGR5 null mice): not affected
- serum BA levels (TGR5 null mice): lowered serum BA levels
- weight gain or insulin sensitivity (TGR5 null mice): no significant changes
- serum Fex level after PO relative to IP levels ([1]; acute 100 mg/kg, PO compared to IP): 10%
- concentration at 5 days ([1]; mouse, serum, PO 100 mg/kg, read-out: serum levels of Fex after PO administration): < 25 nM
- FGF15 expression in intestine (RNA-Seq) ([2]; 100 mg/kg PO 5 weeks): dramatically up-regulated
- bile acid pool size (total serum BA levels) ([2]; 100 mg/kg PO 5 weeks): reducing the bile acid pool size
- ratio of unconjugated to conjugated cholic acid ([2]; 100 mg/kg PO 5 weeks): remarkably increased
- circulating FGF15 ([2]; 100 mg/kg PO 5 weeks, serum): increase in circulating FGF15
- expression of liver FXR target genes SHP and BSEP ([2]; chronic Fex treatment): not altered
- hepatic CYP7A1 expression (mRNA and protein) ([2]; chronic Fex treatment): significantly repressed
- hepatic expression of CYP8B1 and CYP27A1 ([2]; chronic Fex treatment): not affected
- expression of mucosal defense genes Occludin and Muc2 ([2]; chronic Fex-treatment): increased expression
